Some test systems named below: CCRF-CEM leukemia; EKVX NSCLC; HL-60(TB) leukemia; HS 578T breast; NCI-H522 lung; SK-MEL-28 melanoma; SW-620 colon; T-47D breast.
What all share (assay): NCI tumour cell line growth inhibition, 48 h

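Compound exposure: 48 hours, 5 concentrations, 96-well plates. Here, GI50 denotes the concentration required for 50% inhibition of growth. At the TGI there is no net growth.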 A value given as a limit tells only on which side of the number the result lay.

Take `C=CCc1cc(O)ccc1O`: the GI50 with CCRF-CEM leukemia is 2.34 µM; in the test with EKVX NSCLC it was 41.1 µM; with HL-60(TB) leukemia, 2.53 µM; in the test on HS 578T breast it was 23.2 µM; with NCI-H522 lung it was 2.49 µM; with SK-MEL-28 melanoma, > 100 µM. Further, the figures for the GI50 with SW-620 colon and with T-47D breast were 21.6 µM and 16.9 µM, respectively. Also, the TGI in the test with CCRF-CEM leukemia is 14.5 µM; in the test with EKVX NSCLC, > 100 µM; in the test with HL-60(TB) leukemia it was 7.04 µM; with HS 578T breast, > 100 µM; in the test with NCI-H522 lung, 11.1 µM; in the test with SK-MEL-28 melanoma it was > 100 µM. In addition, the TGI worked out at 44.8 µM in the test on SW-620 colon and 84.4 µM in the test with T-47D breast.
As to `O=C(NNC1=NS(=O)(=O)c2ccccc2N1c1ccccc1)c1cnccn1`, the GI50 in the test with CCRF-CEM leukemia, in the test on EKVX NSCLC, in the test with HL-60(TB) leukemia, with HS 578T breast, in the test with NCI-H522 lung and in the test on SK-MEL-28 melanoma was > 100 µM each time. Moreover, the GI50 in the test on SW-620 colon and with T-47D breast was > 100 µM throughout. Moreover, the TGI in the test with CCRF-CEM leukemia, in the test on EKVX NSCLC, with HL-60(TB) leukemia, in the test on HS 578T breast, in the test with NCI-H522 lung and in the test on SK-MEL-28 melanoma was > 100 µM each time. The TGI with SW-620 colon and in the test on T-47D breast was > 100 µM each time.
As for `CCN(CC)CCOc1ccc(/C(=C(\C)Cc2ccc(OC)cc2)c2ccc(O)cc2)cc1`, the GI50 with CCRF-CEM leukemia is 2.19 µM; with EKVX NSCLC it was 2.08 µM; in the test with HL-60(TB) leukemia it was 1.41 µM; in the test with HS 578T breast it was 1.69 µM; in the test with NCI-H522 lung it was 1.89 µM; in the test with SK-MEL-28 melanoma, 1.79 µM. The GI50 with SW-620 colon was 1.7 µM; in the test with T-47D breast, 1.14 µM. Further, the TGI in the test on CCRF-CEM leukemia amounted to 5.1 µM; in the test on EKVX NSCLC it was 6.19 µM; in the test with HL-60(TB) leukemia, 3.14 µM; in the test with HS 578T breast it was 4.22 µM; in the test with NCI-H522 lung it was 3.82 µM; in the test with SK-MEL-28 melanoma, 3.33 µM. Moreover, the TGI amounted to 3.37 µM in the test with SW-620 colon and 3.52 µM in the test on T-47D breast.
For `CCCCNC(=O)CC1=C(C)/C(=C/c2[nH]c(-c3ccc[nH]3)cc2OC)N=C1C`, the GI50 is 1.71 µM with CCRF-CEM leukemia; 2.29 µM with EKVX NSCLC; 2.84 µM in the test with HL-60(TB) leukemia; 2.66 µM in the test with HS 578T breast; 1.8 µM with NCI-H522 lung; 3.23 µM with SW-620 colon. For the same compound, in the test on T-47D breast, the GI50 was 2.41 µM. Also, the TGI in the test with CCRF-CEM leukemia was found to be 8.88 µM; with EKVX NSCLC it was 15.5 µM; in the test on HL-60(TB) leukemia it was 6.87 µM; in the test on HS 578T breast it was 9.11 µM; with NCI-H522 lung it was 4.89 µM; with SW-620 colon, 13.9 µM. For the same compound, the TGI with T-47D breast came to 7.39 µM.
Take `O=C(Nc1nc2ccc(OC(F)(F)F)cc2s1)c1ccc(F)cc1`: the GI50 was 3.96 µM with CCRF-CEM leukemia; 2.65 µM in the test on EKVX NSCLC; 3.04 µM with HL-60(TB) leukemia; 3.12 µM in the test on HS 578T breast; 3.14 µM with NCI-H522 lung; 3.6 µM in the test with SK-MEL-28 melanoma. Also, the GI50 is 3.74 µM in the test with SW-620 colon and 2.64 µM in the test on T-47D breast. Moreover, the TGI in the test on CCRF-CEM leukemia was > 100 µM; in the test with EKVX NSCLC it was 10.6 µM; in the test with HL-60(TB) leukemia, 9.29 µM; in the test on HS 578T breast, > 100 µM; with NCI-H522 lung, 11.4 µM; in the test with SK-MEL-28 melanoma, > 100 µM. Further, the TGI was > 100 µM in the test on SW-620 colon and 9.78 µM in the test on T-47D breast.
In the case of `CCN(CC)CCOc1ccc2c(-c3ccccc3)c(-c3ccc(OC)cc3)c(=O)oc2c1`, the GI50 was 3.34 µM with CCRF-CEM leukemia; 6.14 µM in the test with EKVX NSCLC; 1.7 µM in the test on HL-60(TB) leukemia; 3.19 µM in the test on HS 578T breast; 4.92 µM with NCI-H522 lung; 1.96 µM with SK-MEL-28 melanoma. Moreover, the GI50 in the test on SW-620 colon is 2.14 µM; in the test with T-47D breast, 3.57 µM. The TGI was found to be 15.4 µM with CCRF-CEM leukemia; 20.3 µM in the test on EKVX NSCLC; 3.98 µM with HL-60(TB) leukemia; 15.5 µM in the test on HS 578T breast; 18.5 µM with NCI-H522 lung; 4.38 µM in the test on SK-MEL-28 melanoma. Besides, the values for the TGI in the test on SW-620 colon and with T-47D breast were 5.76 µM and 15.9 µM, respectively.
Turning to `Cc1cc2c3c(nc4ccccc42)C(=O)c2cccnc2-c3n1`, the GI50 is 0.171 µM in the test with CCRF-CEM leukemia; 0.707 µM with EKVX NSCLC; 0.135 µM in the test with HL-60(TB) leukemia; 1.69 µM in the test on HS 578T breast; 0.04 µM in the test on NCI-H522 lung; 0.976 µM in the test with SK-MEL-28 melanoma. Further, the GI50 is 0.17 µM in the test on SW-620 colon and 0.749 µM in the test with T-47D breast. For the same compound, the TGI with CCRF-CEM leukemia is 1.4 µM; with EKVX NSCLC, 2.49 µM; in the test with HL-60(TB) leukemia, 1.36 µM; with HS 578T breast, > 21.9 µM; in the test on NCI-H522 lung it was 0.315 µM; in the test with SK-MEL-28 melanoma, 2.68 µM. The TGI in the test on SW-620 colon was determined as 1.01 µM; with T-47D breast, 4.13 µM.
In the case of `COc1cc(C(=O)/C=C/c2cccnc2Nc2ccc(Cl)cc2)cc(OC)c1OC`, the GI50 in the test on CCRF-CEM leukemia is 0.369 µM; in the test on EKVX NSCLC, 1.61 µM; with HL-60(TB) leukemia, 1.59 µM; in the test with HS 578T breast it was 3.08 µM; in the test with NCI-H522 lung it was 1.46 µM; with SK-MEL-28 melanoma, 1.72 µM. For the same compound, the GI50 was 0.955 µM in the test on SW-620 colon and 1.42 µM in the test with T-47D breast. The TGI in the test with CCRF-CEM leukemia amounted to 4.87 µM; with EKVX NSCLC, 3.16 µM; in the test with HL-60(TB) leukemia, 5.14 µM; in the test with HS 578T breast, 59.2 µM; with NCI-H522 lung, 3 µM; in the test with SK-MEL-28 melanoma it was 3.12 µM. Further, the figures for the TGI in the test with SW-620 colon and in the test on T-47D breast were 2.47 µM and 3.24 µM, respectively.
In the case of `COC(=O)NC1=Nc2ccccc2C(=O)NN1`, the TGI in the test with CCRF-CEM leukemia, in the test on EKVX NSCLC, in the test on HL-60(TB) leukemia, in the test on HS 578T breast, with NCI-H522 lung and with SK-MEL-28 melanoma was > 100 µM each time. Moreover, the TGI in the test on SW-620 colon and in the test on T-47D breast was > 100 µM throughout.
`O=C(O)c1cc(-c2ccc(-c3ccccc3)cc2)nc2cc3ccccc3cc12`: the TGI in the test on CCRF-CEM leukemia is 39.8 µM; in the test on EKVX NSCLC it was > 100 µM; in the test with HL-60(TB) leukemia, > 100 µM; in the test on HS 578T breast, > 100 µM; in the test with NCI-H522 lung it was > 100 µM; in the test on SK-MEL-28 melanoma, > 100 µM. In addition, the TGI with SW-620 colon and with T-47D breast was > 100 µM each time.

These data come from PubChem BioAssay (NCI).
